Data: US12357619B2, “Noradrenergic and specific serotonergic anxiolytic and antidepressant, method for the production and use thereof” (ALLA CHEM, LLC, priority 2020, dated 2025)
Like-named read-outs stand apart in the source and are kept apart here.

Tests used:
[1] = Pharmacokinetics, single oral administration of capsules in healthy volunteers (Example 10); format: in vivo, human; details: for AUC(0-inf) / Tmax / Cmax: capsules; for AUC(0-inf) / Tmax: 8 volunteers; for Cmax: average of 8 volunteers
Excerpt: Clinical study of the safety of the oral drug of this invention.

[2] = target: T1, Adrenergic α2A (Homo sapiens, UniProt P08913); assay: Receptor activities, Ki (Table 1); format: binding
T1 sequence (P08913 1-465): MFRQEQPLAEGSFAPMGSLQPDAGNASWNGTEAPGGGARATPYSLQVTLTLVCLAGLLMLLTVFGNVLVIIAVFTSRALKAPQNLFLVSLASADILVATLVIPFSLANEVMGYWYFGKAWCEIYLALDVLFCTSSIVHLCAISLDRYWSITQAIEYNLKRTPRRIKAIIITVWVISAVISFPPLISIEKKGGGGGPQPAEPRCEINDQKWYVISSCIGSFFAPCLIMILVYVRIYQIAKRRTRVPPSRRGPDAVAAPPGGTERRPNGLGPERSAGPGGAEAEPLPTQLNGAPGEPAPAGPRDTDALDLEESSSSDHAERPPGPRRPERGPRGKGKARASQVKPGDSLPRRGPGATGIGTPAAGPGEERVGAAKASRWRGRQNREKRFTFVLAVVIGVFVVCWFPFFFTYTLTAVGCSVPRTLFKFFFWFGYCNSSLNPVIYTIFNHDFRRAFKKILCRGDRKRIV

[3] = system: people with generalized anxiety disorder (GAD); assay: Randomized double-blind placebo-controlled GAD study, adverse events; format: in vivo, human
Method: Example 12. Efficacy and safety study of the oral drug of this invention made as a pharmaceutical composition of this invention in capsules. […] During the study, 3 scheduled visits were conducted in Week 2, Week 4, and Week 8 to assess the effectiveness and safety of the therapy as well as drug inventory and administration. During all of those visits, the patient's diary was checked, a drug inventory was made and the patients' compliance was assessed. In addition, adverse events, concomitant therapy, and vital signs were evaluated, urine drug screen was performed, and assessments using Hamilton Anxiety Rating Scale (HARS), Hamilton Depression Scale (HAMD), Clinical Global Impression-Severity (CGI-S), Clinical Global Impression-Improvement (CGI-I), and Visual Analog Scale (VAS) were made; women of child-bearing potential will take a urine pregnancy test. Also, during visits at Week 4 and Week 8 a physical examination was performed, body weight was measured, an ECG was performed in 12 leads and blood and urine samples were obtained for laboratory tests, namely: urinalysis and biochemical blood analysis, PK analysis before and 1 hour after taking the study drug (SD), and urinalysis. At Week 4, a blood sample was also obtained for genotyping by CYP2D6. At Week 8, treatment in the groups was completed, and all patients were prescribed a placebo to be taken during the follow-up period, which lasted 1 week. During this time, a possible development of SD withdrawal syndrome against the background of placebo was evaluated. During the visit at Week 9, the patient's diary was checked, a drug inventory was made and the patients' compliance was assessed. In addition, adverse events, concomitant therapy, and vital signs were evaluated, urine drug screen was performed, and assessments using the Hamilton Anxiety Rating Scale (HARS), Hamilton Depression Scale (HAMD), Clinical Global Impression-Severity (CGI-S), Clinical Global Impression-Improvement (CGI-I), and Visual Analog Scale (VAS) were made; women of child-bearing age will take a urine pregnancy test. At this point, the patients' participation in the study was completed, and they received recommendations for further treatment as part of standard GAD therapy.

[4] = system: people with generalized anxiety disorder (GAD); assay: Randomized double-blind placebo-controlled GAD study, visual analog scale (VAS); format: in vivo, human; details: after 8 weeks
Method: Example 12. Efficacy and safety study of the oral drug of this invention made as a pharmaceutical composition of this invention in capsules. […] During the study, 3 scheduled visits were conducted in Week 2, Week 4, and Week 8 to assess the effectiveness and safety of the therapy as well as drug inventory and administration. During all of those visits, the patient's diary was checked, a drug inventory was made and the patients' compliance was assessed. In addition, adverse events, concomitant therapy, and vital signs were evaluated, urine drug screen was performed, and assessments using Hamilton Anxiety Rating Scale (HARS), Hamilton Depression Scale (HAMD), Clinical Global Impression-Severity (CGI-S), Clinical Global Impression-Improvement (CGI-I), and Visual Analog Scale (VAS) were made; women of child-bearing potential will take a urine pregnancy test. Also, during visits at Week 4 and Week 8 a physical examination was performed, body weight was measured, an ECG was performed in 12 leads and blood and urine samples were obtained for laboratory tests, namely: urinalysis and biochemical blood analysis, PK analysis before and 1 hour after taking the study drug (SD), and urinalysis. At Week 4, a blood sample was also obtained for genotyping by CYP2D6. […] During this time, a possible development of SD withdrawal syndrome against the background of placebo was evaluated. […]

[5] = male, human, blood, single oral dose 2 mg
[6] = male, human, blood, single oral dose 4 mg
[7] = male, human, blood, single oral dose 10 mg
[8] = male, human, blood, single oral dose 20 mg

## Cc1ccc2c(c1)c1c(n2CCc2ccccc2)CCN(C)C1.Cl [A•HCl, 2,8-dimethyl-5-(2-phenylethyl)-2,3,4,5-tetrahydro-1H-pyrido[4,3-b]indole hydrochloride]
[1]; dose range from 2 to 20 mg
  Dose dependence of Cmax and AUC: linear increase in Cmax and AUC
[1]; [5]
  AUC(0-inf): 0.0946 ng·h/mL
  Tmax: 1 h
[1]; male, human, blood, single oral dose 2 mg, read-out: Cmax
  Cmax: 0.0021 ng/mL
[1]; [6]
  AUC(0-inf): 0.211 ng·h/mL
  Tmax: 1 h
[1]; [7]
  AUC(0-inf): 0.462 ng·h/mL
  Tmax: 0.625 h
[1]; [8]
  AUC(0-inf): 0.834 ng·h/mL
  Tmax: 1 h
[1]; male, human, blood, single oral doses 2 to 20 mg, read-out: Harmonic mean half-life
  half-life: ≤ 14 h
[1]; single oral dose 4 mg
  Cmax: 0.0229 ng/mL
[1]; single oral dose 10 mg
  Cmax: 0.0537 ng/mL
[1]; single oral dose 20 mg
  Cmax: 0.0841 ng/mL
[1]; single oral doses 2 to 20 mg
  Time at which the maximum concentration in the blood of the base (A) is reached: about an hour
[2]
  Ki: 1.77 nM
[3]; 40 mg/day, 42 patients
  Adverse effect Bitter taste in mouth, pain in the left hypochondrium, %: 0.0%
  Adverse effect Bitter taste in mouth, pain in the left hypochondrium, N (number of people): 0
  Adverse effect Constipation, %: 0.0%
  Adverse effect Constipation, N (number of people): 0
  Adverse effect Daytime drowsiness, %: 2.4%
  Adverse effect Daytime drowsiness, N (number of people): 1
  Adverse effect Decreased appetite, %: 2.4%
  Adverse effect Decreased appetite, N (number of people): 1
  Adverse effect Dizziness, %: 0.0%
  Adverse effect Dizziness, N (number of people): 0
  Adverse effect Elevated creatinine kinase level, %: 0.0%
  Adverse effect Elevated creatinine kinase level, N (number of people): 0
  Adverse effect Headache, %: 4.8%
  Adverse effect Headache, N (number of people): 2
  Adverse effect Impaired concentration, %: 0.0%
  Adverse effect Impaired concentration, N (number of people): 0
  Adverse effect Increased psychic tension, %: 0.0%
  Adverse effect Increased psychic tension, N (number of people): 0
  Adverse effect Insomnia, %: 2.4%
  Adverse effect Insomnia, N (number of people): 1
  Adverse effect Jaw reduction, %: 0.0%
  Adverse effect Jaw reduction, N (number of people): 0
  Adverse effect Low hemoglobin level, %: 2.4%
  Adverse effect Low hemoglobin level, N (number of people): 1
  Adverse effect Nausea, %: 0.0%
  Adverse effect Nausea, N (number of people): 0
  Adverse effect Nocturnal awakening, %: 0.0%
  Adverse effect Nocturnal awakening, N (number of people): 0
  Adverse effect Sleepiness, %: 2.4%
  Adverse effect Sleepiness, N (number of people): 1
  Adverse effect Tension in the body (back, arms, legs), %: 0.0%
  Adverse effect Tension in the body (back, arms, legs), N (number of people): 0
  Adverse effect Tingling in the hands, %: 0.0%
  Adverse effect Tingling in the hands, N (number of people): 0
  Adverse effect Weakness, %: 0.0%
  Adverse effect Weakness, N (number of people): 0
[3]; 60 mg/day, 44 patients
  Adverse effect Bitter taste in mouth, pain in the left hypochondrium, %: 2.3%
  Adverse effect Bitter taste in mouth, pain in the left hypochondrium, N (number of people): 1
  Adverse effect Constipation, %: 2.3%
  Adverse effect Constipation, N (number of people): 1
  Adverse effect Daytime drowsiness, %: 0.0%
  Adverse effect Daytime drowsiness, N (number of people): 0
  Adverse effect Decreased appetite, %: 0.0%
  Adverse effect Decreased appetite, N (number of people): 0
  Adverse effect Dizziness, %: 9.1%
  Adverse effect Dizziness, N (number of people): 4
  Adverse effect Elevated creatinine kinase level, %: 2.3%
  Adverse effect Elevated creatinine kinase level, N (number of people): 1
  Adverse effect Headache, %: 13.6%
  Adverse effect Headache, N (number of people): 6
  Adverse effect Impaired concentration, %: 2.3%
  Adverse effect Impaired concentration, N (number of people): 1
  Adverse effect Increased psychic tension, %: 4.5%
  Adverse effect Increased psychic tension, N (number of people): 2
  Adverse effect Insomnia, %: 0.0%
  Adverse effect Insomnia, N (number of people): 0
  Adverse effect Jaw reduction, %: 2.3%
  Adverse effect Jaw reduction, N (number of people): 1
  Adverse effect Low hemoglobin level, %: 0.0%
  Adverse effect Low hemoglobin level, N (number of people): 0
  Adverse effect Nausea, %: 4.5%
  Adverse effect Nausea, N (number of people): 2
  Adverse effect Nocturnal awakening, %: 2.3%
  Adverse effect Nocturnal awakening, N (number of people): 1
  Adverse effect Sleepiness, %: 15.9%
  Adverse effect Sleepiness, N (number of people): 7
  Adverse effect Tension in the body (back, arms, legs), %: 2.3%
  Adverse effect Tension in the body (back, arms, legs), N (number of people): 1
  Adverse effect Tingling in the hands, %: 2.3%
  Adverse effect Tingling in the hands, N (number of people): 1
  Adverse effect Weakness, %: 6.8%
  Adverse effect Weakness, N (number of people): 3
[3]; GAD patients, 40 and 60 mg/day, 8 weeks
  Safety profile and tolerability in patients: favorable safety profile and good tolerability
[3]; dose of 60 mg, GAD patients
  Side effects observed: headache, drowsiness, dizziness, weakness, nausea, increased anxiety
[4]; 40 mg, N = 42, average at Week 0 24.1
  VAS average change (standard error): −9.5 (3.24)
[4]; 60 mg, N = 44, average at Week 0 27.4
  VAS average change (standard error): −11.1 (3.23)
